What was measured:
[1] = test system: KMS-Cell; assay: KMS cell IC50 (Table 4); format: cell-based; details: KMS cells
[2] = target: T1, Pim-1 stably transfected into the U2OS human osteogenic sarcoma line (Homo sapiens, UniProt P11309); assay: Pim cell assay, phospho-BAD normalized against total BAD, U2OS stably transfected with Pim-1; format: cell-based; details: U2OS stably transfected with Pim-1; phospho-BAD normalized against total BAD; 29 min incubation; read-out: Pim1_Cell_IC50_
T1 construct: expressed in transfected cells; host or cells: U2OS human osteogenic sarcoma line
In short: (§1)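 Read-out is phospho-BAD relative to total BAD, by MSD electrochemiluminescence on lysates, expressed as % phosphoprotein = (2×phospho)/(phospho+total)×100. Engineered U2OS lines carrying stably transfected Pim-1 or Pim-2 received 10-point compound dilutions at 0.3% final DMSO after overnight culture at 37 °C; DMSO-only wells served as high control.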

[3] = target: T2, full length recombinant Pim-2 protein (Homo sapiens, UniProt Q9P1W9); assay: Pim-2 enzyme assay (HTRF, phosphorylation of biotinylated-BAD (S112) peptide); format: biochemical; details: read-out: Pim2_IC50
T2 construct: by full length recombinant Pim-1, Pim-2, or Pim-3 protein; hexahistidine tag followed by a thrombin cleavage site (N); made in house; host or cells: Sf9 (baculovirus) or E. coli (pET28)
In short: (§2)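 Each full-length human Pim enzyme phosphorylates a biotinylated BAD (S112) peptide, and the product is sensed by Eu anti-phospho-BAD antibody with streptavidin-APC after quenching with 3 mM EDTA. Conditions: 60 mM Hepes pH 7.0, 0.05% BSA, 2 mM DTT.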

[4] = target: T3, Pim-2 stably transfected into the U2OS human osteogenic sarcoma line (Homo sapiens, UniProt Q9P1W9); assay: Pim cell assay, phospho-BAD normalized against total BAD, U2OS stably transfected with Pim-2; format: cell-based; details: U2OS stably transfected with Pim-2; phospho-BAD normalized against total BAD; 29 min incubation; read-out: Pim2_Cell_IC50_
T3 construct: expressed in transfected cells; host or cells: U2OS human osteogenic sarcoma line
In short: as §1

[5] = target: T4, full length recombinant Pim-1 protein (Homo sapiens, UniProt P11309); assay: Pim-1 enzyme assay (HTRF, phosphorylation of biotinylated-BAD (S112) peptide); format: biochemical; details: read-out: Pim_1_IC50
T4 construct: by full length recombinant Pim-1, Pim-2, or Pim-3 protein; hexahistidine tag followed by a thrombin cleavage site (N); made in house; host or cells: Sf9 (baculovirus) or E. coli (pET28)
In short: as §2

T3 sequence (Q9P1W9 whole entry): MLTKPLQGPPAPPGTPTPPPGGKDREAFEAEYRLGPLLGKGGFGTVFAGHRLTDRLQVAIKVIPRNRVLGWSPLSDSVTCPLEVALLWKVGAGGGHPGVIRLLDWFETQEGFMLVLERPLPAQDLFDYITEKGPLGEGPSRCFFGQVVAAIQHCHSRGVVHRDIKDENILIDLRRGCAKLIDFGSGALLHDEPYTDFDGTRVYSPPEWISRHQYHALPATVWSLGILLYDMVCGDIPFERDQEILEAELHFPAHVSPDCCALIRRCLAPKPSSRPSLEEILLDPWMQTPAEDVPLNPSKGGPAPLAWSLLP
T2 sequence (Q9P1W9 whole entry): as above
T4 sequence (P11309 whole entry): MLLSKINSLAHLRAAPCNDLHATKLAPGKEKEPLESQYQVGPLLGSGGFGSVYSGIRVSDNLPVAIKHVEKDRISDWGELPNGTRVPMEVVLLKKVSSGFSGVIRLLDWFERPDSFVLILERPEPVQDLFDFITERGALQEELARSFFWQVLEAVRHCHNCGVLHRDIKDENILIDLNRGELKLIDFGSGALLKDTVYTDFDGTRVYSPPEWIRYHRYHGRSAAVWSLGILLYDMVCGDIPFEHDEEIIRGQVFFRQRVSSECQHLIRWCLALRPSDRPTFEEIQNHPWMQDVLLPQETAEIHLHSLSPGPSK
T1 sequence (P11309 whole entry): as above

| SMILES | IC50 [1] | IC50 [2] | IC50 [3] | IC50 [4] | IC50 [5] |
| --- | --- | --- | --- | --- | --- |
| CC1CCNCC1Oc1cncc(-c2n[nH]c3ccc(-c4c(F)cccc4F)cc23)n1 (single isomer, unassigned) [Example 424] | 6.28 µM | 0.433 µM | 0.004 µM | 2.47 µM | 0.001 µM |
| O=c1cc(-c2n[nH]c3ccc(-c4c(F)cccc4F)cc23)nc(N[C@@H]2CCCNC2)[nH]1 [Example 282, (R)-6-(5-(2,6-difluorophenyl)-1H-indazol-3-yl)-2-(piperidin-3-ylamino)pyrimidin-4(3H)-one] | 2.65 µM | 1.17 µM | – | > 10 µM | – |
| c1cc2[nH]nc(-c3cncc(OC4CCNCC4)n3)c2cc1-c1cncc(C2CC2)n1 [Example 364, 5-(6-cyclopropyl-2-pyrazinyl)-3-(6-(4-piperidinyloxy)-2-pyrazinyl)-1H-indazole] | 5.85 µM | 0.022 µM | 0.005 µM | 3.46 µM | – |
| Clc1ccccc1-c1ccc2[nH]nc(-c3cncc(O[C@H]4CNCCC45CC5)n3)c2c1 [Example 406] | 2.36 µM | 0.46 µM | 0.001 µM | 5.31 µM | 0.002 µM |
| Fc1cccc(F)c1-c1ccc2[nH]nc(-c3cncc(OC4CNCC5CC54)n3)c2c1 (stereo not drawn) [Example 444] | 5.05 µM | – | 0.028 µM | – | 0.004 µM |
| c1cc2[nH]nc(-c3cncc(O[C@H]4CNCCC45CC5)n3)c2cc1C1CCCC1 [Example 447] | 3.16 µM | – | 0.004 µM | – | 0.004 µM |
| Fc1ccnc(F)c1-c1ccc2[nH]nc(-c3cncc(O[C@H]4CNCCC45CC5)n3)c2c1 [Example 451] | 1.47 µM | – | 0.009 µM | – | 0.003 µM |
| c1cc2[nH]nc(-c3cncc(O[C@H]4CNCCC45CC5)n3)c2cc1C1CCC1 [Example 453] | 4.19 µM | – | 0.007 µM | – | 0.004 µM |
| N#Cc1ccc(-c2ccc3[nH]nc(-c4cncc(O[C@H]5CNCCC56CC6)n4)c3c2)c(F)c1 [Example 456] | 5.49 µM | – | 0.003 µM | – | 0.004 µM |
| NS(=O)(=O)c1ccc(-c2ccc3[nH]nc(-c4cncc(O[C@H]5CNCCC56CC6)n4)c3c2)c(F)c1 [Example 463] | 1.61 µM | – | 0.001 µM | – | 0.002 µM |
| COC(=O)c1ccc2[nH]nc(-c3ccnc(NC4CCNCC4)n3)c2c1 [Example 489] | 1.69 µM | 0.202 µM | 0.003 µM | 4.48 µM | 0.002 µM |
| CN(C)c1nc(-c2c[nH]c3ccc(-c4cncc(C5CC5)n4)cc23)cc(=O)[nH]1 [Example 527] | > 15.8 µM | 0.354 µM | 0.079 µM | > 31.6 µM | 0.013 µM |
| O=c1cc(-c2n[nH]c3ccc(-c4c(F)cccc4F)cc23)nc(O[C@@H]2CCCNC2)[nH]1 [Example 529] | 2.62 µM | – | 0.002 µM | – | 0.002 µM |
| c1coc(-c2ccc3[nH]cc(-c4cncc(N[C@@H]5CCCNC5)n4)c3c2)n1 [Example 542] | 15.9 µM | – | 0.024 µM | – | 0.002 µM |
| O=c1cc(-c2n[nH]c3ccc(-c4c(F)cccc4F)cc23)nc(OC2CNCCC2F)[nH]1 (stereo not drawn) [Example 554] | 6.26 µM | – | 0.01 µM | – | 0.007 µM |

Second part, the compound after the results:

| IC50 [1] | IC50 [2] | IC50 [3] | IC50 [4] | IC50 [5] | SMILES |
| --- | --- | --- | --- | --- | --- |
| 4.64 µM | – | 0.005 µM | – | 0.001 µM | Fc1ccc(Cl)cc1-c1ccc2[nH]nc(-c3cncc(O[C@H]4CNCCC45CC5)n3)c2c1 [Example 443] |
| 1.73 µM | – | 0.005 µM | – | 0.003 µM | c1cc2[nH]nc(-c3cncc(O[C@H]4CNCCC45CC5)n3)c2cc1C1CC1 [Example 446] |
| 9.41 µM | – | 0.097 µM | – | 0.02 µM | Fc1cccc(F)c1-c1ccc2[nH]nc(-c3cncc(OC4CNCC5CC54)n3)c2c1 (stereo not drawn) [Example 452] |
| 0.546 µM | – | 0.003 µM | – | 0.003 µM | CS(=O)(=O)c1cc(F)c(-c2ccc3[nH]nc(-c4cncc(O[C@H]5CNCCC56CC6)n4)c3c2)c(F)c1 [Example 467] |
| 1.45 µM | – | 0.008 µM | – | 0.004 µM | COC(=O)c1ccc2[nH]nc(-c3ccnc(N4CCC(N)CC4)n3)c2c1 [Example 491] |
| > 15.8 µM | – | 0.159 µM | – | 0.07 µM | O=C(O)c1ccc2[nH]nc(-c3cncc(N[C@@H]4CCCNC4)n3)c2c1 [Example 495] |
| 6.04 µM | – | 0.024 µM | – | 0.002 µM | c1coc(-c2ccc3[nH]nc(-c4cncc(N[C@@H]5CCCNC5)n4)c3c2)n1 [Example 541] |
